Tests used:
[1] = system: MSTO-211H cells; experiment: Proliferation Assay (CellTiter-Glo Luminescent Cell Viability Assay); format: cell-based; settings: Homo sapiens, 96 hours treatment
Description: Example 5: Proliferation Assay
The effect of compound on YAP driven cancer cells proliferation was assessed in MSTO-211H (ATCC, CRL-2081TM) or NCI-H2052 (ATCC, CRL-5915TM) cells using CellTiter-Glo Luminescent Cell Viability Assay (Promega, G7570).
Briefly, individual cell lines were seeded in 96-well cell culture plate at the density of 1,500 cells per well and cultured in RPMII1640 (Gibco-A10491-01)+10% FBS (Gibco-10099-141C)+1% Penicillin-Streptomycin (5,000 U/mL, Gibco-15070-063) overnight at 37° C. with 5% CO2 before adding the compounds.
Following incubation, serial dilutions of compounds dissolved in DMSO were added to each well (3-fold dilution with 9 concentration points). The final concentration of DMSO present in this assay is below 0.5% and make duplication for each compound treated well.
Following 96 hours treatment, compound mediated cell growth inhibition was measured using CellTiter-Go Luminescent Cell Viability Assay (Promega, G7570). […] CellTiter-Glo in each assay well, mix and incubate at room temperature for 10 min. Read signal using EnVision® Multilabel Plate Reader (Perkin Elmer).
For data analysis, cell proliferation inhibition was calculated using the following formula:
Inhibition %=(1−(Compound treated well CTG signal/DMSO well CTG signal))*100.
IC50 values were calculated using GraphPad Prism software using a four-parameter fit model.

[2] = biological target: TEAD1(210-426) binding to YAP(50-100) (Homo sapiens, UniProt P28347); experiment: TR-FRET Assay for TEAD1(210-426) Binding to YAP(50-100); settings: His-TEAD 10 nM, YAP-Biotin peptide 50 nM
Description: Compounds were performed 3 fold serial dilution, 12 data points, added to 384 well white plate. The final DMSO concentration is 1%, duplicate for each concentration. Then His-TEAD protein was added to a final concentration of 10 nM, and allowed to preincubate for 30 minutes at room temperature. Assay buffer was added as background control.
YAP-Biotin peptide was added to a final concentration of 50 nM, mixed well, incubate 10 minutes at room temperature. The YAP(50-100) peptide sequence used here is named SEQ ID NO: 2
The Europium-labeled anti-6×His antibody and APC labeled streptavidin were diluted according to the instructions, this detection solution was mixed 1:1 with reaction solution, incubated 1 hour at room temperature.
TR-FRET measurements were made on an Envision (Perkin Elmer), using an excitation wavelength of 320 nm and emissions read at 620 nm and 665 nm. The ratio of the 665 nm to the 620 nm multiply 10000 provides a normalized TR-FRET signal that represents the extent of binding.
Half inhibition concentration IC50 value was calculated by XLfit software.

TEAD1(210-426) binding to YAP(50-100), sequence (P28347 209-426): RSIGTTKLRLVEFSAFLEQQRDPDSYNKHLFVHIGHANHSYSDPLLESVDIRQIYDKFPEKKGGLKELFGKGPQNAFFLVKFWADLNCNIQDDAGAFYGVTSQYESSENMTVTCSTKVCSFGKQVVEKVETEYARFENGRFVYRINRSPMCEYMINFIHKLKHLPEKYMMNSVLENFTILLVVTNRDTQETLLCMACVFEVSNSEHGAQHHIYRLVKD

| SMILES | IC50 [2] [nM] | IC50 [1] [nM] |
| --- | --- | --- |
| CO[C@H]1C[C@H](Nc2ccnc(Cn3ccc(-c4nn(-c5ccc(C(F)(F)F)cc5)c5ccccc45)cc3=O)n2)C1 [Compound 91, 1-((4-(((1r,3r)-3-methoxycyclobutyl)amino)pyrimidin-2-yl)methyl)-4-(1-(4-(trifluoromethyl)phenyl)-1H-indazol-3-yl)pyridin-2(1H)-one] | ≤ 100 | ≤ 1000 |
| CNc1nccc(Cn2ccc(-c3nn(-c4ccc(Cl)cc4)c4c(F)cccc34)cc2=O)n1 [Compound 146, 4-(1-(4-chlorophenyl)-7-fluoro-1H-indazol-3-yl)-1-((2-(methylamino)pyrimidin-4-yl)methyl)pyridin-2(1H)-one] | ≤ 100 | ≤ 1000 |
| O=c1cc(-c2nn(-c3ccc(C(F)(F)F)cc3)c3nccnc23)ccn1Cc1nccc(O)n1 [Compound 100, 1-((4-hydroxypyrimidin-2-yl)methyl)-4-(1-(4-(trifluoromethyl)phenyl)-1H-pyrazolo[3,4-b]pyrazin-3-yl)pyridin-2(1H)-one] | ≤ 100 | ≤ 1000 |
| CN(CCO)c1nccc(Cn2ccc(-c3nn(-c4ccc(C(F)(F)F)cc4)c4nccnc34)cc2=O)n1 [Compound 106, 1-((2-((2-hydroxyethyl)(methyl)amino)pyrimidin-4-yl)methyl)-4-(1-(4-(trifluoromethyl)phenyl)-1H-pyrazolo[3,4-b]pyrazin-3-yl)pyridin-2(1H)-one] | ≤ 100 | ≤ 1000 |
| O=c1cc(-c2nn(-c3ccc(C(F)(F)F)cc3)c3ccccc23)ccn1Cc1nccc(N2CCOCC2)n1 [Compound 84, 1-((4-morpholinopyrimidin-2-yl)methyl)-4-(1-(4-(trifluoromethyl)phenyl)-1H-indazol-3-yl)pyridin-2(1H)-one] | ≤ 100 | ≤ 1000 |
| CNc1nccc(Cn2ccc(-c3nn(-c4ccc(C(F)(F)F)cc4C)c4ncccc34)cc2=O)n1 [Compound 57] | ≤ 100 | ≤ 1000 |
| C[C@@H](c1ccccn1)n1ccc(-c2nn(-c3ccc(OC(F)(F)F)cc3)c3cccnc23)cc1=O [Compound 1, (S)-1-(1-(pyridin-2-yl)ethyl)-4-(1-(4-(trifluoromethoxy)phenyl)-1H-pyrazolo[4,3-b]pyridin-3-yl)pyridin-2(1H)-one] | ≤ 100 | ≤ 1000 |
| CNc1nccc(Cn2ccc(-c3nn(-c4ccc(F)cc4)c4ncccc34)cc2=O)n1 [Compound 58, 4-(1-(4-fluorophenyl)-1H-pyrazolo[3,4-b]pyridin-3-yl)-1-((2-(methylamino)pyrimidin-4-yl)methyl) pyridin-2(1H)-one] | ≤ 100 | ≤ 1000 |
| C[C@@H](c1ccccn1)n1ccc(-c2nn(-c3ccc(C(F)(F)F)cc3)c3cc(CO)ccc23)cc1=O [Compound 28, (S)-4-(6-(hydroxymethyl)-1-(4-(trifluoromethyl)phenyl)-1H-indazol-3-yl)-1-(1-(pyridin-2-yl)ethyl)pyridin-2(1H)-one] | ≤ 100 | ≤ 1000 |
| CN(CCO)c1ccnc(Cn2ccc(-c3nn(-c4ccc(C(F)(F)F)cc4)c4ccccc34)cc2=O)n1 [Compound 79, 1-((4-((2-hydroxyethyl)(methyl)amino)pyrimidin-2-yl)methyl)-4-(1-(4-(trifluoromethyl)phenyl)-1H-indazol-3-yl)pyridin-2(1H)-one] | – | ≤ 1000 |
| C[C@@H](c1ccccn1)n1ccc(-c2nn(-c3ccc(C(F)(F)F)cc3)c3ccc(C(N)=O)cc23)cc1=O [Compound 23] | 100 to 1000 | – |
| C[C@@H](c1ccccn1)n1ccc(-c2nc(-c3ccc(C(F)(F)F)cc3)n3ccccc23)cc1=O [Compound 35, (S)-1-(1-(pyridin-2-yl)ethyl)-4-(3-(4-(trifluoromethyl)phenyl)imidazo[1,5-a]pyridin-1-yl)pyridin-2(1H)-one] | ≤ 100 | – |
| C[C@@H](c1ccccn1)n1ccc(-c2nn(-c3ccc(C(F)(F)F)cc3)c3ccc(C#N)cc23)cc1=O [Compound 25] | 100 to 1000 | – |
| COC(=O)c1ccc2c(-c3ccn([C@@H](C)c4ccccn4)c(=O)c3)nn(-c3ccc(C(F)(F)F)cc3)c2c1 [Compound 26, methyl (S)-3-(2-oxo-1-(1-(pyridin-2-yl)ethyl)-1,2-dihydropyridin-4-yl)-1-(4-(trifluoromethyl)phenyl)-1H-indazole-6-carboxylate] | 100 to 1000 | – |
| CNc1nccc(Cn2ccc(-c3nn(-c4ccc(C(F)F)cc4)c4ncccc34)cc2=O)n1 [Compound 144, 4-(1-(4-(difluoromethyl)phenyl)-1H-pyrazolo[3,4-b]pyridin-3-yl)-1-((2-(methylamino)pyrimidin-4-yl)methyl) pyridin-2(1H)-one] | – | ≤ 1000 |
| O=c1cc(-c2nn(-c3ccc(C(F)(F)F)cc3)c3ccccc23)ccn1C1CCOCC1 [Compound 27] | > 1000 | – |
| COC(=O)c1ccc2c(c1)c(-c1ccn([C@@H](C)c3ccccn3)c(=O)c1)nn2-c1ccc(C(F)(F)F)cc1 [Compound 22, methyl (S)-3-(2-oxo-1-(1-(pyridin-2-yl)ethyl)-1,2-dihydropyridin-4-yl)-1-(4-(trifluoromethyl)phenyl)-1H-indazole-5-carboxylate] | 100 to 1000 | – |
| C[C@@H](c1ccccn1)n1ccc(-c2nn(-c3ccc(C(F)(F)F)cc3)c3ccc(C(=O)O)cc23)cc1=O [Compound 21] | 100 to 1000 | – |

Now from value to compound, other results behind:

| IC50 [2] [nM] | SMILES | IC50 [1] [nM] |
| --- | --- | --- |
| ≤ 100 | O=c1cc(-n2nc(-c3ccc(C(F)(F)F)cc3)c3ncccc32)ccn1Cc1ccnc(OCCO)n1 [Compound 56, 1-((2-(2-hydroxyethoxy)pyrimidin-4-yl)methyl)-4-(3-(4-(trifluoromethyl)phenyl)-1H-pyrazolo[4,3-b]pyridin-1-yl)pyridin-2(1H)-one] | ≤ 1000 |
| 100 to 1000 | Cn1ccnc1Cn1ccc(-n2nc(-c3ccc(C(F)(F)F)cc3)c3ncccc32)cc1=O [Compound 43, 1-((1-methyl-1H-imidazol-2-yl)methyl)-4-(3-(4-(trifluoromethyl)phenyl)-1H-pyrazolo[4,3-b]pyridin-1-yl)pyridin-2(1H)-one] | ≤ 1000 |
| ≤ 100 | Cn1ccc(Cn2ccc(-n3nc(-c4ccc(C(F)(F)F)cc4)c4ncccc43)cc2=O)n1 [Compound 41, 1-((1-methyl-1H-pyrazol-3-yl)methyl)-4-(3-(4-(trifluoromethyl)phenyl)-1H-pyrazolo[4,3-b]pyridin-1-yl)pyridin-2(1H)-one] | ≤ 1000 |
| ≤ 100 | Cn1nccc1Cn1ccc(-c2nn(-c3ccc(C(F)(F)F)cc3)c3ccccc23)cc1=O [Compound 37, 1-((1-methyl-1 H-pyrazol-5-yl)methyl)-4-(1-(4-(trifluoromethyl)phenyl)-1H-indazol-3-yl)pyridin-2(1H)-one] | ≤ 1000 |
| > 1000 | Cn1ccc(-c2nn(-c3ccc(C(F)(F)F)cc3)c3cccnc23)cc1=O [Compound 10, 1-methyl-4-(1-(4-(trifluoromethyl)phenyl)-1H-pyrazolo[4,3-b]pyridin-3-yl)pyridin-2(1H)-one] | – |
| ≤ 100 | COc1cccc(Cn2ccc(-c3nn(-c4ccc(C(F)(F)F)cc4)c4ccccc34)cc2=O)n1 [Compound 83, 1-((6-methoxypyridin-2-yl)methyl)-4-(1-(4-(trifluoromethyl)phenyl)-1 H-indazol-3-yl)pyridin-2(1H)-one] | ≤ 1000 |
| ≤ 100 | O=c1cc(-c2nn(-c3ccc(C(F)(F)F)cc3)c3ncccc23)ccn1Cc1nccc(O)n1 [Compound 101, 1-((4-hydroxypyrimidin-2-yl)methyl)-4-(1-(4-(trifluoromethyl)phenyl)-1H-pyrazolo[3,4-b]pyridin-3-yl)pyridin-2(1H)-one] | ≤ 1000 |
| ≤ 100 | CN(CCO)c1nccc(Cn2ccc(-c3nn(-c4ccc(C(F)(F)F)cc4)c4ccccc34)cc2=O)n1 [Compound 94, 1-((2-((2-hydroxyethyl)(methyl)amino)pyrimidin-4-yl)methyl)-4-(1-(4-(trifluoromethyl)phenyl)-1H-indazol-3-yl)pyridin-2(1H)-one] | ≤ 1000 |
| ≤ 100 | C[C@@H](c1ccccn1)n1ccc(-n2nc(-c3ccc(C(F)(F)F)cc3)c3cccnc32)cc1=O [Compound 32, (S)-1-(1-(pyridin-2-yl)ethyl)-4-(3-(4-(trifluoromethyl)phenyl)-1H-pyrazolo[3,4-b]pyridin-1-yl)pyridin-2(1H)-one] | – |
| 100 to 1000 | Cn1cc(Cn2ccc(-c3nn(-c4ccc(C(F)(F)F)cc4)c4ccccc34)cc2=O)cn1 [Compound 36, 1-((1-methyl-1H-pyrazol-4-yl)methyl)-4-(1-(4-(trifluoromethyl)phenyl)-1H-indazol-3-yl)pyridin-2(1H)-one] | – |

Reference: patent US20250154127A1, “BICYCLIC HETEROARYL COMPOUNDS AND USES THEREOF” (ETERN BIOPHARMA (SHANGHAI) CO., LTD., priority 2022, published 2025)
